Reference: patent US9018258B2, “Substituted 1-benzylcycloalkylcarboxylic acids and the use thereof” (Bayer Intellectual Property GmbH, priority 2010, dated 2015)

Biological target: T1, sGC (Rattus norvegicus, UniProt P20595)
T1 construct: expressed in transfected cells; host or cells: CHO reporter cell
Assay: Action at a recombinant guanylate cyclase reporter cell line (CHO reporter cell)
Type: cell-based
Settings: CHO reporter cell in vitro
Procedure: The cellular action of the compounds according to the invention is determined at a recombinant guanylate cyclase reporter cell line, as described in F. Wunder et al., Anal. Biochem. 339, 104-112 (2005).

T1 sequence (P19686 whole entry partner): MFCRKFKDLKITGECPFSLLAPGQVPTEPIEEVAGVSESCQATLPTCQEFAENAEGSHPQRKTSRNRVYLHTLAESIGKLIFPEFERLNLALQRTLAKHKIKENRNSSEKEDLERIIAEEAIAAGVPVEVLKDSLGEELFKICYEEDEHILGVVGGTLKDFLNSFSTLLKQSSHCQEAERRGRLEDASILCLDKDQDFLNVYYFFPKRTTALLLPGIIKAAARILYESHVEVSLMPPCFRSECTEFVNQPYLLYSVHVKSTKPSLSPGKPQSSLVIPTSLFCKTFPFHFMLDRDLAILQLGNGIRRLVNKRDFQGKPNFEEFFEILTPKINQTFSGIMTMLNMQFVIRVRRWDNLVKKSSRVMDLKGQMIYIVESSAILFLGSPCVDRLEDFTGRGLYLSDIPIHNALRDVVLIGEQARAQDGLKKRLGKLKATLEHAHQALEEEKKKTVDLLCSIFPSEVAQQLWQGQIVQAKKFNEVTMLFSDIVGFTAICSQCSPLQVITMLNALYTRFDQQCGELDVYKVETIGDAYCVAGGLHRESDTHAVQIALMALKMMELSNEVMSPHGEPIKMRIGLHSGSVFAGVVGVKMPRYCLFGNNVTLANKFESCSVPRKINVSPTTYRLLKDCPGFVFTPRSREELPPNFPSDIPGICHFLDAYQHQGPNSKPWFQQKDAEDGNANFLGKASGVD
T1 sequence (P20595 whole entry): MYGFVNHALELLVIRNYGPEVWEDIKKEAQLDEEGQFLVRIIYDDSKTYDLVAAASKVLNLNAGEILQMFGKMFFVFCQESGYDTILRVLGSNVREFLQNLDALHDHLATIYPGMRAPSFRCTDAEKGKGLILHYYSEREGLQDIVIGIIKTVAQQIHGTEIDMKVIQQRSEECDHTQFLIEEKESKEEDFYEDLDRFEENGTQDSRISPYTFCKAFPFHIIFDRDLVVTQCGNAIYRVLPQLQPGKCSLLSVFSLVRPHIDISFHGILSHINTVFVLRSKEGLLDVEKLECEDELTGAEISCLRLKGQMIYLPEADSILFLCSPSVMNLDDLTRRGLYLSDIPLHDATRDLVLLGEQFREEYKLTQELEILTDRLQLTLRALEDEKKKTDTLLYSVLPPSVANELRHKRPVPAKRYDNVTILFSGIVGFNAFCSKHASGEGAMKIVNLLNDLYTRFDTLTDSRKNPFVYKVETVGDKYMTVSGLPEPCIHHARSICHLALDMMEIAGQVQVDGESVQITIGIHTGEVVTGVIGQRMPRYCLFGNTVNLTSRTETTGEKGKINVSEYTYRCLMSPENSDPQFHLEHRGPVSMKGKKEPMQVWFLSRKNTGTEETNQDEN

MEC (minimum effective concentration), sGC-activating activity in the CHO reporter cell	SMILES
3 nM	CC(C(C(=O)Nc1cccc(CC2(C(=O)O)CC2)c1)c1ccc(C(F)(F)F)cc1)C(F)(F)F (single isomer, unassigned) [Example 80, 1-[3-({4,4,4-Trifluoro-3-methyl-2-[4-(trifluoromethyl)phenyl]butanoyl}amino)benzyl]cyclo-propanecarboxylic acid]
20 nM	C[C@H]([C@H](C(=O)Nc1cc(C(O)C2(C(=O)O)CC2)ccc1Cl)c1ccc(Cl)cc1)C(F)(F)F (single isomer, unassigned) [Example 104]
100 nM	O=C(Nc1cccc(CC2(C(=O)O)CC2)c1)C(c1ccc(C=C(F)F)cc1)C1CCCC1 (racemic) [Example 12, (+/−)-1-[3-({cyclopentyl[4-(2,2-difluorovinyl)-phenyl]acetyl}amino)benzyl]cyclopropane-carboxylic acid]
10 nM	O=C(Nc1cccc(CC2(C(=O)O)CC2)c1)C(c1ccc(C(F)(F)F)cc1)C1CCCC1 (racemic) [Example 53, (+/−)-1-[3-({Cyclopentyl[4-(trifluoromethyl)phenyl]acetyl}amino)benzyl]cyclopropanecarboxylic acid]
3 nM	O=C(Nc1cc(CC2(C(=O)O)CC2)ccc1F)[C@H](c1ccc(Cl)cc1)C1CCCC1(F)F (single isomer, unassigned; (+)) [Example 67]
10 nM	C[C@H]([C@H](C(=O)Nc1c(Cl)ccc(CC2(C(=O)O)CC2)c1F)c1ccc(Cl)cc1)C(F)(F)F [Example 52, 1-(4-Chloro-3-{[(2S,3R)-2-(4-chlorophenyl)-4,4,4-trifluoro-3-methylbutanoyl]amino}-2-fluorobenzyl)cyclopropanecarboxylic acid]
0.3 nM	C[C@H]([C@H](C(=O)Nc1cc(CC2(C(=O)O)CC2)ccc1F)c1ccc(C(C)(C)C)cc1)C(F)(F)F [Example 39, 1-(3-{[(2S,3R)-2-(4-tert-butylphenyl)-4,4,4-trifluoro-3-methylbutanoyl]amino}-4-fluorobenzyl)cyclopropanecarboxylic acid]
3 nM	O=C(Nc1cc(CC2(C(=O)O)CC2)ccc1F)C(c1ccc(Cl)cc1)C1CCCC1 (racemic) [Example 8, (+/−)-1-(3-{[(4-chlorophenyl)(cyclopentyl)acetyl]-amino}-4-fluorobenzyl)cyclopropanecarboxylic acid]
1 nM	CC(C(C(=O)Nc1cc(CC2(C(=O)O)CC2)ccc1Cl)c1ccc(CC(F)(F)F)cc1)C(F)(F)F (stereo not drawn) [Example 46, 1-[4-chloro-3-({4,4,4-trifluoro-3-methyl-2-[4-(2,2,2-trifluoroethyl)phenyl]butanoyl}amino)-benzyl]cyclopropanecarboxylic acid]
5.3 nM	O=C(Nc1cc(CC2(C(=O)O)CC2)ccc1F)C(c1ccc(Cl)cc1)C1CCCC1(F)F (racemic) [Example 65, 1-(3-{[(4-Chlorophenyl)(2,2-difluorocyclopentyl)acetyl]amino}-4-fluorobenzyl)cyclopropane-carboxylic acid]
10 nM	C[C@H]([C@H](C(=O)Nc1cc(CC2(C(=O)O)CC2)ccc1F)c1ccc(F)cc1)C(F)(F)F [Example 22, (+)-1-(4-fluoro-3-{[(2S,3R)-4,4,4-trifluoro-2-(4-fluorophenyl)-3-methylbutanoyl]amino}-benzyl)cyclopropanecarboxylic acid]
10 nM	O=C(Nc1cc(CC2(C(=O)O)CC2)ccc1F)C(c1ccc(Cl)cc1)C1CCC(F)(F)C1 (stereo not drawn) [Example 34, 1-(3-{[(4-chlorophenyl)(3,3-difluorocyclopentyl)-acetyl]amino}-4-fluorobenzyl)cyclopropane-carboxylic acid]
10 nM	C[C@H]([C@H](C(=O)Nc1cc(CC2(C(=O)O)CC2)ccc1C1CC1)c1ccc(Cl)cc1)C(F)(F)F [Example 97, 1-(3-{[(2S,3R)-2-(4-chlorophenyl)-4,4,4-trifluoro-3-methylbutanoyl]amino}-4-cyclopropyl-benzyl)cyclopropanecarboxylic acid]
3 nM	C[C@H]([C@H](C(=O)Nc1cc(CC2(C(=O)O)CC2(F)F)ccc1Cl)c1ccc(Cl)cc1)C(F)(F)F (stereo partly drawn) [Example 69, 1-(4-Chloro-3-{[(2S,3R)-2-(4-chlorophenyl)-4,4,4-trifluoro-3-methylbutanoyl]amino}benzyl)-2,2-difluorocyclopropanecarboxylic acid]
3 nM	C[C@H]([C@H](C(=O)Nc1cc(C(OC2CC2)C2(C(=O)O)CC2)ccc1Cl)c1ccc(Cl)cc1)C(F)(F)F (single isomer, unassigned) [Example 114]
100 nM	O=C(Nc1cccc(CC2(C(=O)O)CC2)c1)C(c1ccc(CC(F)F)cc1)C1CCCC1 (racemic) [Example 14, (+/−)-1-[3-({cyclopentyl[4-(2,2-difluoroethyl)-phenyl]acetyl}amino)benzyl]cyclopropane-carboxylic acid]
100 nM	C[C@H]([C@H](C(=O)Nc1cccc(CC2(C(=O)O)CC2)c1Cl)c1ccc(Cl)cc1)C(F)(F)F [Example 27, (+)-1-(2-chloro-3-{[(2S,3R)-2-(4-chlorophenyl)-4,4,4-trifluoro-3-methylbutanoyl]amino}benzyl)-cyclopropanecarboxylic acid]
10 nM	O=C(Nc1cc(CC2(C(=O)O)CC2)ccc1F)C(c1ccc([N+](=O)[O-])cc1)C1CCCC1 (racemic) [Example 16, (+/−)-1-(3-{[(4-nitrophenyl)(cyclopentyl)acetyl]-amino}-4-fluorobenzyl)cyclopropanecarboxylic acid]
1 nM	O=C(Nc1cc(CC2(C(=O)O)CC2)ccc1F)C(c1ccc(Cl)cc1F)C1CCCC1 (racemic) [Example 11, (+/−)-1-(3-{[(4-chloro-2-fluorophenyl)(cyclo-pentyl)acetyl]amino}-4-fluorobenzyl)-cyclopropanecarboxylic acid]
30 nM	O=C(Nc1cccc(CC2(C(=O)O)CC2)c1F)C(c1ccc(Cl)cc1)C1CCCC1 (racemic) [Example 6, (+/−)-1-(3-{[(4-chlorophenyl)(cyclopentyl)acetyl]-amino}-2-fluorobenzyl)cyclopropanecarboxylic acid]
0.3 nM	C[C@H]([C@H](C(=O)Nc1cc(C(OC2CC2)C2(C(=O)O)CC2)ccc1Cl)c1ccc(Cl)cc1)C(F)(F)F (single isomer, unassigned) [Example 113]
30 nM	N#Cc1ccc(C(C(=O)Nc2cc(CC3(C(=O)O)CC3)ccc2F)C2CCCC2)cc1 (racemic) [Example 15, (+/−)-1-(3-{[(4-cyanophenyl)(cyclopentyl)acetyl]-amino}-4-fluorobenzyl)cyclopropanecarboxylic acid]
1 nM	CCc1ccc(C(C(=O)Nc2cc(CC3(C(=O)O)CC3)ccc2F)C(C)C(F)(F)F)cc1 (racemic) [Example 9, (+/−)-1-(3-{[2-(4-ethylphenyl)-4,4,4-trifluoro-3-methylbutanoyl]amino}-4-fluorobenzyl)-cyclopropanecarboxylic acid]
30 nM	C[C@H]([C@H](C(=O)Nc1cc(C(C)(O)C2(C(=O)O)CC2)ccc1Cl)c1ccc(Cl)cc1)C(F)(F)F (stereo partly drawn) [Example 111, 1-[1-(4-chloro-3-{[(2S,3R)-2-(4-chlorophenyl)-4,4,4-trifluoro-3-methylbutanoyl]amino}phenyl)-1-hydroxyethyl]cyclopropanecarboxylic acid]
0.3 nM	CCC(c1ccc(Cl)c(NC(=O)[C@H](c2ccc(Cl)cc2)[C@@H](C)C(F)(F)F)c1)C1(C(=O)O)CC1 (stereo partly drawn) [Example 98, 1-[1-(4-Chloro-3-{[(2S,3R)-2-(4-chlorophenyl)-4,4,4-trifluoro-3-methylbutanoyl]amino}phenyl)-propyl]cyclopropanecarboxylic acid]
30 nM	Cc1cc(C(C(=O)Nc2cccc(CC3(C(=O)O)CC3)c2)C(C)C(F)(F)F)ccc1Cl (stereo not drawn) [Example 49, 1-(3-{[2-(4-chloro-3-methylphenyl)-4,4,4-trifluoro-3-methylbutanoyl]amino}benzyl)-cyclopropanecarboxylic acid]
0.1 nM	CC(C)c1ccc([C@@H](C(=O)Nc2cc(CC3(C(=O)O)CC3)ccc2F)[C@@H](C)C(F)(F)F)cc1 [Example 37, 1-(4-fluoro-3-{[(2S,3R)-4,4,4-trifluoro-2-(4-isopropylphenyl)-3-methylbutanoyl]amino}-benzyl)cyclopropanecarboxylic acid]
10 nM	O=C(Nc1cc(CC2(C(=O)O)CC2)ccc1Cl)C(c1ccc(Cl)cc1)C1CCC(F)(F)C1 (stereo not drawn) [Example 35, 1-(3-{[(4-chlorophenyl)(3,3-difluorocyclopentyl)-acetyl]amino}-4-chlorobenzyl)cyclopropane-carboxylic acid]
0.3 nM	CCc1ccc([C@@H](C(=O)Nc2cc(CC3(C(=O)O)CC3)ccc2F)[C@@H](C)C(F)(F)F)cc1 [Example 25, (+)-1-(3-{[(2S,3R)-2-(4-ethylphenyl)-4,4,4-tri-fluoro-3-methylbutanoyl]amino}-4-fluorobenzyl)-cyclopropanecarboxylic acid]
60 nM	C[C@H]([C@H](C(=O)Nc1cc(C(O)C2(C(=O)O)CC2)ccc1Cl)c1ccc(Cl)cc1)C(F)(F)F (single isomer, unassigned) [Example 103]
